Consider seven molecules from patent EP4458358A1, “PYRIDAZINE COMPOUNDS FOR ANTIFIBROTIC THERAPY” (Tietze Chemical Consulting UG, priority 2023, dated 2024).

Assay type in all cases: cell-based
Experiment [1] deals with UKE1. Briefly: ELISA of secreted pro-collagen I alpha 1 (Type I Collagen) from human dermal fibroblasts UKE1. On the procedure: (§1) Compounds reconstitution and stock solution: Prior to treatment, DMSO was diluted in PMS until 0,1% DMSO was made. Each compound was solved in 0,1% DMSO (3: 2,5 mg/mL, 1: 2.5 mg/mL, 10: 1 mg/mL, 5: 1mg/mL, 7: 0,6 mg/mL, 16: 1 mg/mL 17: 1 mg/mL, 44: 0,6 mg/mL, 36: 1mg/mL.
(§2) Next the different stock solution with 150 µg and 250 µg of each compound per 1 ml culture solution was made by adding the 0,1% DMSO compound solution in the right amount to culture solution (DMEM with 10% FCS and 1% penicillin-streptomycin).
(§3) Three different cell lines were used for the experiments. GM637 is an immortalized cell line originated from human skin fibroblasts, bought in 2001, UKE1 and […] are cell lines originated from human dermal fibroblasts (dog ear) nurtured from patients, between 60 and 80 years old being completely anonymized at the clinic for dermatology, Rostock.
(§4) The cells lines were thawed and were cultured in Dulbeco's modified Eagel's medium (DMEM, Gibcon, USA) supplemented with 10% fetal bovine serum (FBS, Gibco, Germany) and 1% penicillin-streptomycin (PS, Gibco, USA) at 37 °C in a humidified atmosphere with 5% CO2 until a sufficient number of cells were culture in T75 culture bottles. After reaching a confluence of 80% to 90%, the cells were separated using trypsin and counted. Next 100.000 cells were planted in each well of a 6 well plate in replicates, washed and the DMEM solution with 150 µg and 250 µg/ml substance/DMEM and DMEM with no substance as control was added.
(§5) After 48h and after 72h 100 µl supernatant of each well was taken, labelled and frozen at -20° degree Celsius. Prior to perform ELISA the medium was depending on the cell line diluted 1:50 or 1:100 with PBS, otherwise the concentration of collagen fibers was too high to be measured.
(§6) The media containing the secretion of the different human dermal fibroblasts GM637, UKE1, and HRO159N were collected after 48h and 72h treatment. Secretion of pro-collagen 1 was assessed with human pro-collagen I alpha 1 DuoSet ELISA (R&D systems, USA) To prepare the Elisa plate, Human pro-Collagen I a capture antibody was diluted in ELISA plate-coating buffer at 4µg/mL working concentration. 100 µl of diluted Capture antibody was added to 96-well microplates and incubated over night at room temperature. After three times washing with Wash Buffer, microplates were blocked by adding 300 µl of Reagent Diluent for 1 hour at room temperature. To proceed the ELISA Human pro-collagen I α1 Standards were diluted in Reagent Diluent (range between 31,3 pg/mL - 2000 pg/mL) and 100 µl of standards or conditioned mediums were added to designated wells. Microplates were incubated at room temperature for 2 hours. Human Pro-collagen I α1 Detection Antibody was prepared in Reagent Diluent at […] working concentration and 100 µl of diluted Detection Antibody was applied for 2 hours at room temperature after extensive washing. Then, working solution of Streptavidin-HRP with Reagent Diluent was prepared by diluting 1:40 and added into each well. After 20 minutes at room temperature incubation, microplates were washed and applied with 100 µl of Substrate Solution for 20 minutes followed by Stop Solution after washing. Finally, signals were measured at 450 nm absorbance by PHomo Microplate Reader (Autobio, China) The amount of pro-collagen 1 was quantified by extrapolating the signal into a linear range of a pro-collagen 1 standard curve. Screening compounds were typically tested at concentration of 150 and 250 µg/mL. The dose response data for each compound and the different cell lines were obtained by nonlinear regression analysis using Prism 9 software (GraphPad, La Jolla, USA).
For orientation: An ELISA detects its analyte on a solid surface through an enzyme-linked reagent.

In experiment [2] the test system is MRCVI. Briefly: ELISA of secreted pro-collagen I alpha 1 (Type I Collagen) from human lung fibroblast MRCVI. Here is the method: as §1, §2
As cell line MRCV1 was used, which is an immortalized cell line originated from human lung fibroblast, bought in 2001.
as §4, with “cell line was” for “cells lines were”, “and” for “and were”
as §5
The medium containing the secretion of the human lung fibroblast MRCVI was collected after 48h and 72h treatment. Secretion of pro-collagen 1 was assessed with human pro-collagen I alpha 1 DuoSet ELISA (R&D systems, USA) To prepare the Elisa plate, Human pro-Collagen I a capture antibody was diluted in ELISA plate-coating buffer at 4µg/mL working concentration. 100 µl of diluted Capture antibody was added to 96-well microplates and incubated over night at room temperature. After three times washing with Wash Buffer, microplates were blocked by adding 300 µl of Reagent Diluent for 1 hour at room temperature. To proceed the ELISA Human pro-collagen I α1 Standards were diluted in Reagent Diluent (range between 31,3 pg/mL - 2000 pg/mL) and 100 µl of standards or conditioned mediums were added to designated wells. Microplates were incubated at room temperature for 2 hours. Human Pro-collagen I α1 Detection Antibody was prepared in Reagent Diluent at […] working concentration and 100 µl of diluted Detection Antibody was applied for 2 hours at room temperature after extensive washing. Then, working solution of Streptavidin-HRP with Reagent Diluent was prepared by diluting 1:40 and added into each well. After 20 minutes at room temperature incubation, microplates were washed and applied with 100 µl of Substrate Solution for 20 minutes followed by Stop Solution after washing. Finally, signals were measured at 450 nm absorbance by PHomo Microplate Reader (Autobio, China) The amount of pro-collagen 1 was quantified by extrapolating the signal into a linear range of a pro-collagen 1 standard curve. Screening compounds were typically tested at concentration of 150 and 250 µg/mL. The dose response data for each compound and the different cell lines were obtained by nonlinear regression analysis using Prism 9 software (GraphPad, La Jolla, USA).

In experiment [3] the test system is HRO159N. In words: ELISA of secreted pro-collagen I alpha 1 (Type I Collagen) from human dermal fibroblasts HRO159N. The note with it: 250 µg. Here is the method: as §1, §2, §3, §4, §5, §6
Experiment [4] has as its system GM637. Briefly: ELISA of secreted pro-collagen I alpha 1 (Type I Collagen) from human dermal fibroblasts GM637. Here is the method: as §1, §2, §3, §4, §5, §6

On to `c1nn2nnnc2c2cscc12` [Compound 17, Tetrazolo[1,5-b]thieno[3,4-d]pyridazine], for which the “collagen reduction percentage in comparison to the standard (100 %)” value (from here on “collagen reduction percentage … (100 %)”) amounted to 102% in experiment [1] (48h, 150 µg); 86% in experiment [1] (48h, 250 µg); 76% in experiment [1] (72 h, 150 µg); 59% in experiment [1] (72 h, 250 µg); 33% in experiment [2] (48h, 150 µg); 16% in experiment [2] (48h, 250 µg). For the same molecule, the “collagen reduction percentage … (100 %)” value came out at 35% in experiment [2] (72 h, 150 µg); 11% in experiment [2] (72 h, 250 µg); 34% in experiment [3] (48h); 4% in experiment [3] (72 h); 90% in experiment [4] (48h, 150 µg); 62% in experiment [4] (48h, 250 µg). Moreover, the “collagen reduction percentage … (100 %)” value in experiment [4] (72 h, 150 µg) turned out to be 103%; in experiment [4] (72 h, 250 µg) it was 55%.
For `Cc1nnc2c3ccc(C(F)(F)F)cc3cnn12` [Compound 36, 3-Methyl-8-(trifluoromethyl)-[1,2,4]triazolo[3,4-a]phthalazine], the “collagen reduction percentage … (100 %)” value is recorded as 64% in experiment [2] (48h, 150 µg); 68% in experiment [2] (48h, 250 µg); 36% in experiment [2] (72 h, 150 µg); 22% in experiment [2] (72 h, 250 µg).
Regarding `Cc1nnc2c3cscc3cnn12` [Compound 16, 3-Methylthieno[3,4-d][1,2,4]triazolo[4,3-b]pyridazine], the “collagen reduction percentage … (100 %)” value in experiment [1] (48h, 150 µg) is recorded as 117%; in experiment [1] (48h, 250 µg) it was 99%; in experiment [1] (72 h, 150 µg), 82%; in experiment [1] (72 h, 250 µg), 35%; in experiment [2] (48h, 150 µg), 72%; in experiment [2] (48h, 250 µg), 43%. Besides, the “collagen reduction percentage … (100 %)” value in experiment [2] (72 h, 150 µg) was 82%; in experiment [2] (72 h, 250 µg), 35%; in experiment [3] (48h) it was 79%; in experiment [3] (72 h) it was 48%; in experiment [4] (48h, 150 µg), 79%; in experiment [4] (48h, 250 µg) it was 62%. Moreover, the “collagen reduction percentage … (100 %)” value amounted to 86% in experiment [4] (72 h, 150 µg) and 55% in experiment [4] (72 h, 250 µg).
Consider `[2H]C([2H])([2H])c1nnc2c3ccccc3cnn12` [Compound 7, 3-D3-Methyl-1,2,4-triazolo[3,4-a]phthalazine], for which the “collagen reduction percentage … (100 %)” value in experiment [1] (48h, 150 µg) was 79%; in experiment [1] (48h, 250 µg) it was 54%; in experiment [1] (72 h, 150 µg), 44%; in experiment [1] (72 h, 250 µg) it was 47%; in experiment [2] (48h, 150 µg) it was 19%; in experiment [2] (48h, 250 µg), 9%. For the same molecule, the “collagen reduction percentage … (100 %)” value in experiment [2] (72 h, 150 µg) turned out to be 14%; in experiment [2] (72 h, 250 µg), 3%; in experiment [3] (48h), 43%; in experiment [3] (72 h), 33%; in experiment [4] (48h, 150 µg), 101%; in experiment [4] (48h, 250 µg), 75%. Besides, the “collagen reduction percentage … (100 %)” value is 43% in experiment [4] (72 h, 150 µg) and 30% in experiment [4] (72 h, 250 µg).
Consider `CC(C)Oc1nn2nnnc2c2c(Cl)cccc12` [Compound 44, 10-chloro-6-isopropoxytetrazolo[5,1-a]phthalazine], for which the “collagen reduction percentage … (100 %)” value was determined as 122% in experiment [1] (48h, 150 µg); 89% in experiment [1] (48h, 250 µg); 61% in experiment [1] (72 h, 150 µg); 65% in experiment [1] (72 h, 250 µg); 72% in experiment [3] (48h); 79% in experiment [3] (72 h). Besides, the “collagen reduction percentage … (100 %)” value amounted to 122% in experiment [4] (48h, 150 µg); 89% in experiment [4] (48h, 250 µg); 61% in experiment [4] (72 h, 150 µg); 65% in experiment [4] (72 h, 250 µg).
In the case of `FC(F)(F)c1nnc2c3ccccc3cnn12` [Compound 5, 3-Trifluoromethyl-1,2,4-triazolo[3,4-a]phthalazine], the “collagen reduction percentage … (100 %)” value in experiment [1] (48h, 150 µg) turned out to be 107%; in experiment [1] (48h, 250 µg), 99%; in experiment [1] (72 h, 150 µg), 94%; in experiment [1] (72 h, 250 µg), 62%; in experiment [2] (48h, 150 µg), 97%; in experiment [2] (48h, 250 µg), 107%. The “collagen reduction percentage … (100 %)” value is reported as 56% in experiment [2] (72 h, 150 µg); 108% in experiment [2] (72 h, 250 µg); 114% in experiment [4] (48h, 150 µg); 89% in experiment [4] (48h, 250 µg); 70% in experiment [4] (72 h, 150 µg); 105% in experiment [4] (72 h, 250 µg).
On to `c1ccc2c(c1)cnn1cnnc21` [Compound 10, 1,2,4-Triazolo[3,4-a]phthalazine], for which the “collagen reduction percentage … (100 %)” value in experiment [2] (48h, 150 µg) was 67%; in experiment [2] (48h, 250 µg), 52%; in experiment [2] (72 h, 150 µg) it was 48%; in experiment [2] (72 h, 250 µg), 25%.
